Consider three compounds from publication PMC11956017, “Design of Benzyl-triazolopyrimidine-Based NADPH Oxidase Inhibitors Leads to the Discovery of a Potent Dual Covalent NOX2/MAOB Inhibitor” (Journal of Medicinal Chemistry, 2025).

Entries after “also recorded” stand apart in the source; their conditions may differ. Some results are limits rather than exact numbers.

One experiment has as its target T1, human NOX4 (Homo sapiens, UniProt Q9NPH5).
T1 construct: expressed in transfected cells; host or cells: HEK293 F cells, transient transfection (pTT22 and pYD7 vectors); isolated membranes
T1 sequence (Q9NPH5 1-578): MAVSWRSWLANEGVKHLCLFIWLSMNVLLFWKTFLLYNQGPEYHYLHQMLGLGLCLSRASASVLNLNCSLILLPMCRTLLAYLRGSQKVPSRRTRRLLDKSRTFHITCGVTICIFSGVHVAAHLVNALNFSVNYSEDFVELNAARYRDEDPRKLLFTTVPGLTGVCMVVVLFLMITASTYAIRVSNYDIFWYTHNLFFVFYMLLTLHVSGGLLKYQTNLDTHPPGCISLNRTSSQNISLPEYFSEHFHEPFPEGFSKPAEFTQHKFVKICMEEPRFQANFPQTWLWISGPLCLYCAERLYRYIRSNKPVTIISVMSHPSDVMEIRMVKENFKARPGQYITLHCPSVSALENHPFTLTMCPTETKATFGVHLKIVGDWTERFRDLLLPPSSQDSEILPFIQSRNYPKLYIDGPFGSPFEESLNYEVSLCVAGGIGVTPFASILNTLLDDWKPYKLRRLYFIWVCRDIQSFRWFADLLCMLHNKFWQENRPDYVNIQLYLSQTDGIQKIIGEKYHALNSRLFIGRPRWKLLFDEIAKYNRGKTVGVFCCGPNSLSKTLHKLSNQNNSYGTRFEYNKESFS
T1 sequence (P13498 1-195 partner): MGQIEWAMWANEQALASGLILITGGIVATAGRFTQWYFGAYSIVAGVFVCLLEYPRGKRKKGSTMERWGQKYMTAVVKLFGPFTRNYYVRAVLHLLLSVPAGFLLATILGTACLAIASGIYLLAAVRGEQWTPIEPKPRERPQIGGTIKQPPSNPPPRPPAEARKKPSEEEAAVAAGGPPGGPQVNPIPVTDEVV
Description: Human NOX4 isolated membranes, Amplex Red/horseradish peroxidase coupled assay. The format is biochemical. To be noted: membrane-embedded; 40 μM NADPH; read-out: IC50 on human NOXs, NOX4 (AMPLEX RED). The protocol: Activity assays for IC50 determinations were performed as previously described[40],[42] with modifications for covalent inhibitors. […] The estimated final protein concentrations based on the heme’s absorbance (ε414 nm = 131,000 M^–1 cm^–1) were 10–20 nM. Compounds were incubated for 1 h at 25 °C at varying concentrations, and reactions were initiated with 40 μM NADPH. Fluorescence was measured using a ClarioStar plate reader (excitation 572 nm/emission 583 nm).

The target of another experiment is T2, human MAOB (Homo sapiens, UniProt P27338).
T2 construct: made in house; host or cells: Pichia pastoris
T2 sequence (P27338 1-520): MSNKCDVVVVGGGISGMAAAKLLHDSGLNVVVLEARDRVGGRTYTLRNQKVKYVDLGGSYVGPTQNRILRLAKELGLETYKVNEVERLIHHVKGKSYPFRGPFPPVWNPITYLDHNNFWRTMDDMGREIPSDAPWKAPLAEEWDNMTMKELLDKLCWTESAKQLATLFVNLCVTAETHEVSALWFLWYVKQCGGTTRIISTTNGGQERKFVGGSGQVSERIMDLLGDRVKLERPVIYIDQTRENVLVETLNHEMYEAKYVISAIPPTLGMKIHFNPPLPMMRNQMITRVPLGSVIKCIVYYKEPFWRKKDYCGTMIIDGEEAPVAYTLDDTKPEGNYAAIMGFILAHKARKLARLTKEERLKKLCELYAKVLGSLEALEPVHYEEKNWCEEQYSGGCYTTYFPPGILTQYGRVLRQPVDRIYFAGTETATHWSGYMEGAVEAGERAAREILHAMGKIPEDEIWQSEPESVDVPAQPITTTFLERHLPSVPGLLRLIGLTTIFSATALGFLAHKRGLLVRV
Put plainly: Purified MAOB, Amplex Red/horseradish peroxidase coupled assay. The format is biochemical. To be noted: for IC50 / IC50 Purified MAOB: 10 nM MAOB, 1 mM benzylamine. The protocol:
IC50 values on human MAOA and human MAOB were determined using the Amplex Red/horseradish peroxidase coupled assay. […] Measurements were performed using a ClarioStar plate reader (excitation 572 nm and emission 583 nm) (BMG Labtech). IC50 values were obtained by fitting the percentage of inhibition versus log(inhibitor concentration) using GraphPad software 7.0. The covalent modification of the flavin upon the reaction with the propargylamine-containing inhibitors was monitored spectrophotometrically using a diode array UV/visible spectrophotometer (Agilent Technologies). […] The cofactor covalent modification was monitored over time following the shift of the enzyme-bound flavin (peaks at 370 and 456 nm) to 410 nm (ε410 = 23,500 M^–1 cm^–1) (Figure S10).

In another experiment the target is NOX2 (Homo sapiens, UniProt P04839). Put plainly: In cellulo NOX2 activity in NOX2-overexpressing PLB-985 cells, cytochrome c reduction. The format is cell-based. Details: NOX2 was expressed as native protein in X-CGD PLB-985 cells transduced with the RD114 pseudotyped MFGS-NOX2 vector; expressed in transfected cells; host or cells: X-CGD PLB-985 cells transduced with MFGS-NOX2 vector. To be noted: for IC50: intact PMA-stimulated cells, cytochrome c 200 μM. The protocol:
Measurement of human NOX2 activity in cells was performed by a cytochrome c (200 μM) reduction assay. Superoxide production of intact PLB-985 cells (3 × 10^5 cells) was measured after PMA stimulation (5 μM) as reported.[40],[42] The compounds (0.04–40 μM) were added to the prestimulated cells and incubated for 1 h at 37 °C and 5% CO2, 120 rpm (New Brunswick S41i incubator shaker, Eppendorf). The absorbance at 550 nm was followed at 37 °C over a time course of 20 min in a ClarioStar plate reader (BMG Labtech).

NOX2, sequence (P04839 2-570 limits assumed, one chain of several): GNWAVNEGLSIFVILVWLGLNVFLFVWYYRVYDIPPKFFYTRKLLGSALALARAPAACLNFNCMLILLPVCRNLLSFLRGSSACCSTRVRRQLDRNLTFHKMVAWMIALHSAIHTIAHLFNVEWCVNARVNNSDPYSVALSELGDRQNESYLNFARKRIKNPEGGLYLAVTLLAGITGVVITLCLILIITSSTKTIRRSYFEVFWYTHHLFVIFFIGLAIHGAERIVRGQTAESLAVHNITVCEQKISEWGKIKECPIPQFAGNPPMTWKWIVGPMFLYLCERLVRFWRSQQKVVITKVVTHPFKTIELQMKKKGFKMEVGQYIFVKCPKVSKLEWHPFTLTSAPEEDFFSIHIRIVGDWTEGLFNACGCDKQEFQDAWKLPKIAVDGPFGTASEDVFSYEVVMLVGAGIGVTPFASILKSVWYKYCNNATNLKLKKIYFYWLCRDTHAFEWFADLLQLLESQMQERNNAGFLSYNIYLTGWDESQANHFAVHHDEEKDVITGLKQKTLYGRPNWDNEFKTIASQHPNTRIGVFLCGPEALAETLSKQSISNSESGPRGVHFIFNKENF
NOX2, sequence (P19878 whole entry partner, one chain of several): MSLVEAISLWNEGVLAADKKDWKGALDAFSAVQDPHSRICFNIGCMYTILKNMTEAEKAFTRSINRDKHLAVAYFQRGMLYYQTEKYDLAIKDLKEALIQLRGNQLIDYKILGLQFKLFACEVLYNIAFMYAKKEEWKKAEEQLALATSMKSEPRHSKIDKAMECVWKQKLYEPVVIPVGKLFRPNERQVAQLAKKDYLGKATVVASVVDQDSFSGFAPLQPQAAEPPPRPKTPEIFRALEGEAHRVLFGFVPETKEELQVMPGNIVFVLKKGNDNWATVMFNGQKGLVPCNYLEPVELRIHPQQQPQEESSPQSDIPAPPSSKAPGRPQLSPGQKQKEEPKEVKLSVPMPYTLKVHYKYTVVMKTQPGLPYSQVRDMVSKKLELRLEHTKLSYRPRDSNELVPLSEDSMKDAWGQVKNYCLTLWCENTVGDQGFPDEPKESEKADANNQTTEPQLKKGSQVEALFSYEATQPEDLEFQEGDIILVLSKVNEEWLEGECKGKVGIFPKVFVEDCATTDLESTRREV
NOX2, sequence (P14598 whole entry partner, one chain of several): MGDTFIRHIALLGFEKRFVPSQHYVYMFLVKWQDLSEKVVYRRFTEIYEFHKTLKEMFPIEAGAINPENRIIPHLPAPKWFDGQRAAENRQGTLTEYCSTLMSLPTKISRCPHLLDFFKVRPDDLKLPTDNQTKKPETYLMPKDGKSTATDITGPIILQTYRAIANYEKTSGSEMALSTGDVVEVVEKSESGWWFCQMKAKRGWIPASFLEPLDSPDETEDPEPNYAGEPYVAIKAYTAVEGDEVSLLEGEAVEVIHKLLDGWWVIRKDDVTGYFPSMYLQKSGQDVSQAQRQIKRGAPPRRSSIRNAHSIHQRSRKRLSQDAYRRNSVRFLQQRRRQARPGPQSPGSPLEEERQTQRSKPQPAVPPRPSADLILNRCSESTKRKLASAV

Broadly, the IC50 is the concentration that inhibits the measured activity by half. On to `CCCNC(=O)c1ccc(Cn2nnc3c(Sc4nc5ccccc5o4)ncnc32)cc1` [Compound 8a, (4-((7-Benzo[d]oxazol-2-yl-thio)-3H-[1,2,3]triazole[4,5-d]pyrimidin-3-yl)methyl)-N-(propyl)benzamide], for which the IC50 is 21.8 ± 1.1 µM at human NOX4, more than 100 µM at human MAOB and 2.81 ± 0.88 µM at NOX2. Besides, the “IC50 Purified MAOB” value on human MAOB is recorded as “ineffective; also recorded: Not detected”.

With `C#CCN(C)Cc1ccc(Cn2nnc3c(Sc4nc5ccccc5o4)ncnc32)cc1` [Compound 9a, N-(4-((7-(Benzo[d]oxazol-2-ylthio)-3H-[1,2,3]triazolo[4,5-d]pyrimidin-3-yl)methyl)benzyl)-N-methylprop-2-yn-1-amine], the figures for the IC50 on human NOX4, at human MAOB and at NOX2 were 42 ± 16 µM, 0.182 ± 0.1 µM and 0.135 ± 0.02 µM, respectively. The “MAOB inhibition relative to rasagiline (weaker)” value on human MAOB came out at 10 fold. For the same compound, at NOX2 (PLB-985 cells), the “potency against NOX2 in cellulo relative to VAS2870 (more potent)” value is on record as 2 fold.

As for `C#CCNC(=O)c1ccc(Cn2nnc3c(Sc4nc5ccccc5o4)ncnc32)cc1` [Compound 8b, (4-((7-Benzo[d]oxazol-2-yl-thio)-3H-[1,2,3]triazole[4,5-d]pyrimidin-3-yl)methyl)-N-(prop-2-in-1-yl)benzamide], the IC50 on human NOX4 was determined as 57.9 ± 7 µM; on NOX2, 17.6 ± 3.4 µM. On human MAOB, the “IC50 Purified MAOB” value is given as “Inhibition^b”.
